Results: US8124788B2, “Spirocyclic cyclohexane compounds with analgesic activity” (Gruenenthal GmbH, priority 2006, dated 2012)

These compounds were tested against T1, human μ opiate receptor (Homo sapiens, UniProt P35372) (assay: Affinity for the human μ opiate receptor ([3H]-naloxone displacement, CHO-K1 membrane preparation, SPA)). Conditions: compounds prepared via automated synthesis; single measurements at a test concentration of 1 μM.
T1 construct: purchased PerkinElmer Life Sciences, Zaventem, Belgium RB-HOM; host or cells: CHO-K1 cells (recombinant expression)
T1 sequence (P35372 whole entry): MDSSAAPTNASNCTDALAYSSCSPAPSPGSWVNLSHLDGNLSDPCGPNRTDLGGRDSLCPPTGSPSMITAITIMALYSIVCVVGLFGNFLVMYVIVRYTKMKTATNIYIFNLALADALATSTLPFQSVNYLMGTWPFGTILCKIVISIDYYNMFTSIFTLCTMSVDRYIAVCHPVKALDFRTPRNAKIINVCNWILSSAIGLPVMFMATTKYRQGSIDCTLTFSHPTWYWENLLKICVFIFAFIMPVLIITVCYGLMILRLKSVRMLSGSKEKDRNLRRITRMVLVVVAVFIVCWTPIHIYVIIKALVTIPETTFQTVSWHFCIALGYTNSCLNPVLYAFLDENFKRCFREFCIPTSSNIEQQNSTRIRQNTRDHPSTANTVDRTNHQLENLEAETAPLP
Assay type: binding
Protocol: The receptor affinity for the human μ opiate receptor is determined in a homogeneous set-up in microtitre plates. For this purpose, dilution series of the substances to be tested are incubated with a receptor membrane preparation (15-40 μg of protein/250 μl of incubation batch) of CHO-K1 cells which express the human μ opiate receptor (RB-HOM receptor membrane preparation from PerkinElmer Life Sciences, Zaventem, Belgium) in the presence of 1 nmol/l of the radioactive ligand [^3H]-naloxone (NET719, PerkinElmer Life Sciences, Zaventem, Belgium) and 1 mg of WGA-SPA-Beads (wheat germ agglutinin SPA beads from Amersham/Pharmacia, Freiburg, Germany) in a total volume of 250 μl for 90 minutes at room temperature. 50 mmol/l of Tris-HCl supplemented with 0.06% of bovine serum albumin are used as the incubation buffer. 100 μmol/l of naloxone are additionally added for determination of the non-specific binding. After the end of the ninety-minute incubation time, the microtitre plates are centrifuged for 20 minutes at 1,000 g and the radioactivity is measured in a β-counter (Microbeta-Trilum, PerkinElmer Wallac, Freiburg, Germany). The percentage displacement of the radioactive ligand from its binding to the human μ opiate receptor is determined at a concentration of the test substances of 1 μmol/l and stated as the percentage inhibition of the specific binding. Starting from the percentage displacement by various concentrations of the test substances, IC50 inhibitory concentrations which cause a 50 percent displacement of the radioactive ligand are calculated. By conversion by means of the Cheng-Prusoff relationship, Ki values for the test substances are obtained.

Structure (SMILES)	μ opioid receptor [1 μmol], % inhibition [%]
CN(C)C(c1ccc(F)cc1)C1CCC2(CC1)c1[nH]c3ccccc3c1CCN2C(=O)CCC1CCCC1 (stereo not drawn) [Compound 85, 2-(3-cyclopentylpropanoyl)-{1,1-[3-(dimethylamino-(4-fluorophenyl)methyl)-pentamethylene]-3,4-dihydro-1H-2,9-diazafluorene}]	50
CN(C)C(c1ccc(F)cc1)C1CCC2(CC1)c1[nH]c3ccccc3c1CCN2C(=O)CC(C)(C)C (stereo not drawn) [Compound 62, 1-{1,1-[3-(dimethylamino-(4-fluorophenyl)methyl) -pentamethylene]-3,4-dihydro-1H-2,9-diazafluoren-2-yl}-3,3-dimethylbutan-1-one]	12
CC(C)CC(=O)N1CCc2c([nH]c3ccccc23)C12CCC(C(c1cccc(F)c1)N(C)C)CC2 (stereo not drawn) [Compound 129, 1-{1,1-[3-(dimethylamino-(3-fluorophenyl)methyl) -pentamethylene]-3,4-dihydro-1H-2,9-diazafluoren-2-yl}-3-methylbutan-1-one]	74
CC(=Cc1ccccc1)C(=O)N1CCc2c([nH]c3ccccc23)C12CCC(C(c1ccc(Cl)cc1)N(C)C)CC2 (stereo not drawn) [Compound 75, 1-{1,1-[3-(dimethylamino-(4-chlorophenyl)methyl) -pentamethylene]-3,4-dihydro-1H-2,9-diazafluoren-2-yl}-2-methyl-3-phenylprop-2-en-1-one]	13
CN(C)C(c1ccc(F)cc1)C1CCC2(CC1)c1[nH]c3ccccc3c1CCN2C(=O)C1CCCC1 (stereo not drawn) [Compound 109, 2-cyclopentylcarbonyl-{1,1-[3-(dimethylamino-(4-fluorophenyl)methyl)-pentamethylene]-3,4-dihydro-1H-2,9-diazafluorene}]	21
CCCCC(CC)C(=O)N1CCc2c([nH]c3ccccc23)C12CCC(C(c1ccccc1)N(C)C)CC2 (stereo not drawn) [Compound 100, 2-(2-ethylhexanoyl)-{1,1-[3-(dimethylamino-phenylmethyl)-pentamethylene]-3,4-dihydro-1H-2,9-diazafluorene}]	65
CN(C)C(c1ccc(Cl)cc1)C1CCC2(CC1)c1[nH]c3ccccc3c1CCN2C(=O)C1CC1 (stereo not drawn) [Compound 96, 2-(cyclopropylcarbonyl)-{1,1-[3-(dimethylamino-(4-chlorophenyl)methyl)-pentamethylene]-3,4-dihydro-1H-2,9-diazafluorene}]	18
CN(C)C(c1cccc(F)c1)C1CCC2(CC1)c1[nH]c3ccccc3c1CCN2C(=O)Cc1ccc(F)cc1 (stereo not drawn) [Compound 116, 2-[(4-fluorophenyl)acetyl]-{1,1-[3-(dimethylamino-(3-fluorophenyl)methyl)-pentamethylene]-3,4-dihydro-1H-2,9-diazafluorene}]	20
COCC(=O)N1CCc2c([nH]c3ccccc23)C12CCC(C(c1cccc(F)c1)N(C)C)CC2 (stereo not drawn) [Compound 92, 2-(methoxyacetyl)-{1,1-[3-(dimethylamino-(3-fluorophenyl)methyl)-pentamethylene]-3,4-dihydro-1H-2,9-diazafluorene}]	22
COc1ccc(CC(=O)N2CCc3c([nH]c4ccccc34)C23CCC(C(c2ccc(F)cc2)N(C)C)CC3)cc1OC (stereo not drawn) [Compound 63, 2-[(3,4-dimethoxyphenyl)acetyl]-{1,1-[3-(dimethylamino-(4-fluorophenyl)methyl)-pentamethylene]-3,4-dihydro-1H-2,9-diazafluorene}]	29
CC(Oc1ccccc1)C(=O)N1CCc2c([nH]c3ccccc23)C12CCC(C(c1ccccc1)N(C)C)CC2 (stereo not drawn) [Compound 137, 2-(2-phenoxypropanoyl)-{1,1-[3-(dimethylamino-phenylmethyl)-pentamethylene]-3,4-dihydro-1H-2,9-diazafluorene}]	68
CC(=Cc1ccccc1)C(=O)N1CCc2c([nH]c3ccccc23)C12CCC(C(c1ccc(F)cc1)N(C)C)CC2 (stereo not drawn) [Compound 64, 1-{1,1-[3-(dimethylamino-(4-fluorophenyl)methyl) -pentamethylene]-3,4-dihydro-1H-2,9-diazafluoren-2-yl}-2-methyl-3-phenylprop-2-en-1-one]	15
COc1cccc(CC(=O)N2CCc3c([nH]c4ccccc34)C23CCC(C(c2ccc(F)cc2)N(C)C)CC3)c1 (stereo not drawn) [Compound 140, 2-[(3-methoxyphenyl)acetyl]-{1,1-[3-(dimethylamino-(4-fluorophenyl)methyl)-pentamethylene]-3,4-dihydro-1H-2,9-diazafluorene}]	47
CC(Oc1ccccc1)C(=O)N1CCc2c([nH]c3ccccc23)C12CCC(C(c1cccc(F)c1)N(C)C)CC2 (stereo not drawn) [Compound 127, 2-(2-phenoxypropanoyl)-{1,1-[3-(dimethylamino-(3-fluorophenyl)methyl)-pentamethylene]-3,4-dihydro-1H-2,9-diazafluorene}]	55
CN(C)C(c1ccc(F)cc1)C1CCC2(CC1)c1[nH]c3ccccc3c1CCN2C(=O)COc1ccc(Cl)cc1 (stereo not drawn) [Compound 65, 2-[(4-chlorophenoxy)acetyl]-{1,1-[3-(dimethylamino-(4-fluorophenyl)methyl)-pentamethylene]-3,4-dihydro-1H-2,9-diazafluorene}]	17
CC(=Cc1ccccc1)C(=O)N1CCc2c([nH]c3ccccc23)C12CCC(C(c1ccccc1)N(C)C)CC2 (stereo not drawn) [Compound 58, 1-{1,1-[3-(dimethylamino-phenylmethyl)-pentamethylene]-3,4-dihydro-1H-2,9-diazafluoren-2-yl}-2-methyl-3-phenylprop-2-en-1-one]	50
CN(C)C(c1ccc(Cl)cc1)C1CCC2(CC1)c1[nH]c3ccccc3c1CCN2C(=O)Cc1ccc(F)cc1 (stereo not drawn) [Compound 123, 2-[(4-fluorophenyl)acetyl]-{1,1-[3-(dimethylamino-(4-chlorophenyl)-methyl)-pentamethylene]-3,4-dihydro-1H-2,9-diazafluorene}]	20
COCC(=O)N1CCc2c([nH]c3ccccc23)C12CCC(C(c1ccccc1)N(C)C)CC2 (stereo not drawn) [Compound 81, 2-(methoxyacetyl)-{1,1-[3-(dimethylamino-phenylmethyl) -pentamethylene]-3,4-dihydro-1H-2,9-diazafluorene}]	0
COCC(=O)N1CCc2c([nH]c3ccccc23)C12CCC(C(c1ccc(Cl)cc1)N(C)C)CC2 (stereo not drawn) [Compound 97, 2-(methoxyacetyl)-{1,1-[3-(dimethylamino-(4-chlorophenyl)methyl)-pentamethylene]-3,4-dihydro-1H-2,9-diazafluorene}]	20
CN(C)C(c1ccccc1)C1CCC2(CC1)c1[nH]c3ccccc3c1CCN2C(=O)C=Cc1ccccc1Cl (stereo not drawn) [Compound 61, 1-{1,1-[3-(dimethylamino-phenylmethyl)-pentamethylene]-3,4-dihydro-1H-2,9-diazafluoren-2-yl}-3-(2-chlorophenyl)prop-2-en-1-one]	6

Same assay, conditions: compounds prepared via automated synthesis; single measurements at a test concentration of 1 μM; 1 µM

Structure (SMILES)	μ opioid receptor [1 μmol], % inhibition [%]
CN(C)C(c1ccc(Cl)cc1)C1CCC2(CC1)c1[nH]c3ccccc3c1CCN2C(=O)CCc1ccccc1 (stereo not drawn) [Compound 135, (3-phenylpropanoyl)-1-{1,1-[3-(dimethylamino-(4-chlorophenyl)methyl)-pentamethylene]-3,4-dihydro-1H-2,9-diazafluorene}]	38
